This is an account of results in US20130123368A1, “METHODS OF REDUCING 15-F2T-ISOP LEVELS IN MAMMALS” (BIOACTIVES, INC., priority 2007, published 2013).

The subject of series [1] is Caco-2 cell monolayers. The experiment in a line: Permeability of xanthohumol across Caco-2 cell monolayers. The class given is in vitro ADME. The note with it: for Percent Recovery: Caco-2, B-to-A, 2 μM in HBSSg, 37° C. Here is the method: Percent Recovery=100×((Vr×Cr^final)+(Vd×Cd^final))/(Vd×C0)
Where: • dCr/dt is the slope of the cumulative concentration in the receiver compartment versus time in μM s^−1. • Vr is the volume of the receiver compartment in cm^3. • Vd is the volume of the donor compartment in cm^3. • A is the area of the cell-free insert (1.13 cm^2 for 12-well Transwell). • Cr^final is the cumulative receiver concentration in μM at the end of the incubation period. • Cd^final is the concentration of the donor in μM at the end of the incubation period. • C0 is the initial concentration of the dosing solution in μM.
Each determination was performed in duplicate.
For orientation: Caco-2 monolayers are a common model of the intestinal barrier.

The test system of series [2] is Caco-2 cell monolayers. The experiment in a line: Certification of Caco-2 Transwell plates with reference compounds. Format: in vitro ADME. Conditions: plate certification TW12, passage 63, age 22 days. Here is the method:
To test the permeability of xanthohumol across Caco-2 cell monolayers, Caco-2 cell monolayers were grown to confluence on collagen-coated, microporous, polycarbonate membranes in 12-well Costar Transwell® plates. Details of the plates and their certification are shown below in Table 3. The test article was also the aqueous xanthohumol formulation, and the dosing concentration was 2 μM in the assay buffer (HBSSg) as in the previous example. Cell monolayers were dosed on the apical side (A-to-B) or basolateral side (B-to-A) and incubated at 37° C. with 5% CO2 in a humidified incubator. Samples were taken from the donor chamber at 120 minutes, and samples from the receiver chamber were collected at 60 and 120 minutes. Each determination was performed in duplicate. Lucifer yellow permeability was also measured for each monolayer after being subjected to the test article to ensure no damage was inflicted to the cell monolayers during the permeability experiment. All samples were assayed for Xanthohumol by LC/MS/MS using electrospray ionization. The apparent permeability (Papp), and percent recovery were calculated as described above.

What is called Papp is the rate of passage across a membrane or cell layer, normalised by area and donor concentration. Consider Lucifer Yellow [reference compound], for which the “Lucifer yellow Papp, post-experiment integrity control” value in the series on Caco-2 cell monolayers [1] (all monolayers after exposure to the test article) is less than 0.8 ×10⁻⁶ cm/s. This compound showed a Papp in the series with Caco-2 cell monolayers [2] of 0.13 ×10⁻⁶ cm/s.

In the case of `COc1cc(O)c(CC=C(C)C)c(O)c1C(=O)/C=C/c1ccc(O)cc1` [Xanthohumol, 2′,4′,4-trihydroxy-6′-methoxy-3′-prenylchalcone], the “Significant Efflux” value in the series with Caco-2 cell monolayers [1] (Caco-2) was “No”. For the same compound, the “Percent Recovery” value in the series with Caco-2 cell monolayers [1] (Average) and in the series with Caco-2 cell monolayers [1] (Rep. 1) was 81 throughout. In the series on Caco-2 cell monolayers [1] (Caco-2, classification by Papp(A-to-B)), the “Absorption Potential” value is reported as “Medium (1.0 × 10^−6 cm/s > Papp(A-to-B) ≧ 0.5 × 10^−6 cm/s Medium)”.
